Values quoted from earlier work, collected in patent EP0919231A1, “Injectable parasiticide composition and process for the preparation” (Biogenesis, S.A., priority 1997, dated 1999).

Assays:
[1] = bovines; for detection of parent drug in plasma: after administering albendazole or phenbendazole, found in the gastrointestinal lumen; for detected in plasma, time postreatment: metabolite after administering albendazole or phenbendazole respectively
Haemonchus contortus = details: strain resistant to benzimidazoles; intravenous compared with oral administration
[2] = test system: Trichostrongylus colubriformis; details: strain resistant to benzimidazoles; intravenous compared with oral administration

CCCSc1ccc2nc(NC(=O)OC)[nH]c2c1 [albendazole]
detection of parent drug in plasma [1]: not detected

CCC[S+]([O-])c1ccc2[nH]c(NC(=O)OC)nc2c1 (stereo not drawn) [ricobendazole, methyl ester of [(5-propyl-sulphinyl)-1H-benzimidazol-2-il] carbamic acid]
detected in plasma, time postreatment [1]: ≤ 36 h

COC(=O)Nc1nc2ccc([S+]([O-])c3ccccc3)cc2[nH]1 (stereo not drawn) [oxphendazole, methyl ester of [(5-phenyl-sulphinyl)-1H-benzimidazol-2-il] carbamic acid]
detected in plasma, time postreatment [1]: ≤ 36 h | effectiveness intravenous versus oral (Haemonchus contortus): more effective | effectiveness intravenous versus oral [2]: more effective

COC(=O)Nc1nc2ccc(Sc3ccccc3)cc2[nH]1 [phenbendazole]
detection of parent drug in plasma [1]: not detected
